Source: patent publication US10851099B2, “Dipeptide piperidine derivatives” (OncoArendi Therapeutics S.A., priority 2018, dated 2020)
Where a name gives a salt, the structure may show the parent alone.

What was measured:
[1] = biological target: T1, recombinant human arginase 2 (Homo sapiens, UniProt P78540); assay: Human arginase inhibition assay (colorimetric urea detection), arginase 2; type: biochemical; conditions: IC50 class, hydrochloride salts, 1 h at 37° C., pH 7.4, 10 mM L-arginine, 200 μM MnCl2, read-out: Activity Class (ARG II)
T1 construct: made in house; host or cells: E. coli
T1 sequence (P78540 23-354): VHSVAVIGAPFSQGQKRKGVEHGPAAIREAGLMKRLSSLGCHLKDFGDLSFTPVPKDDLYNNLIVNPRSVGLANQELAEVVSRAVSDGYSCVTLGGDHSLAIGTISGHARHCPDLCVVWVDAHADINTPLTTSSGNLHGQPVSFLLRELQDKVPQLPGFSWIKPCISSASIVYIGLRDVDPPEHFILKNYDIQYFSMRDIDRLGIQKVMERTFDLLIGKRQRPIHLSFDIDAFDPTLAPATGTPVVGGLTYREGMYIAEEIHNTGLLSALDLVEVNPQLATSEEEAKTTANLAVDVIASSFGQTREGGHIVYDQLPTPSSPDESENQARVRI
Procedure: (§1) The inhibitory activities of the compounds of the invention were assessed using recombinant human arginase 1 and 2. Both enzymes were biosynthesized using a prokaryotic expression system (E. coli) and purified by fast protein liquid chromatography (FPLC). The compounds were screened in 96-well plates at the total reaction volume of 100 μL. Briefly, recombinant enzymes were incubated with the tested compounds for 1 h at 37° C. in the reaction buffer (100 mM sodium phosphate buffer, 130 mM NaCl, 1 mg/mL BSA, pH 7.4) containing substrate (10 mM L-arginine hydrochloride) and cofactor (200 μM MnCl2). The assay is based on the detection of urea, which is generated during the conversion of L-arginine into L-ornithine catalyzed by ARG1 or ARG2. The colorimetrically detectable product was developed by adding a mixture of reagent A (4 mM oPA, 50 mM boric acid, 1 M sulfuric acid, 0.03% Brij-35) and reagent B (4 mM NED, 50 mM boric acid, 1 M sulfuric acid, 0.03% Brij-35) in equal proportions. The absorbance for each well was measured at 515 nm and the enzyme inhibition was calculated. The urea production in the absence of any tested compound was considered as maximal enzyme activity. The absorbance at the absence of arginase (background) was subtracted from all the values. Normalized values were analyzed using GraphPad Prism 7.0 software by plotting inhibition curves and determining the IC50 values.
(§2) The inhibitory activity toward humane arginase 1 of the hydrochloride salts of the exemplary compounds according to the invention is presented in Table 5.
The inhibitory activity toward humane arginase 2 of the hydrochloride salts of the selected exemplary compounds according to the invention is presented in Table 6.

[2] = biological target: T2, recombinant human arginase 1 (Homo sapiens, UniProt P05089); assay: Human arginase inhibition assay (colorimetric urea detection), arginase 1; type: biochemical; conditions: IC50 class, hydrochloride salts, 1 h at 37° C., pH 7.4, 10 mM L-arginine, 200 μM MnCl2, read-out: Activity Class (ARG I)
T2 construct: made in house; host or cells: E. coli
T2 sequence (P05089 1-322): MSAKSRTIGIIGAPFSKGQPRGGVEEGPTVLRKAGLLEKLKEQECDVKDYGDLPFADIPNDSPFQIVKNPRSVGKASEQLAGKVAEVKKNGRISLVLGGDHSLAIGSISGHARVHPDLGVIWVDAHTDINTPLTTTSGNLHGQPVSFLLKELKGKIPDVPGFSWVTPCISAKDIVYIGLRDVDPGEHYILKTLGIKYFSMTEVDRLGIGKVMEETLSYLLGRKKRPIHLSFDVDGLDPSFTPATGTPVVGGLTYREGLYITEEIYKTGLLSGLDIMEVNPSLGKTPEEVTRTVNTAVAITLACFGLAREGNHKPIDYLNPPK
Procedure: as §1, §2

Row | IC50 [1] | IC50 [2] | Structure (SMILES)
1 | 500 to 999 nM | 1 to 249 nM | NCC(=O)N1C[C@@H](CCB(O)O)C[C@](N)(C(=O)O)C1 [Example 3, (3R,5S)-3-Amino-5-(2-boronoethyl)-1-glycylpiperidine-3-carboxylic acid dihydrochloride]
2 | 250 to 499 nM | 1 to 249 nM | N=C(N)NCCC[C@H](N)C(=O)N1C[C@@H](CCB(O)O)C[C@](N)(C(=O)O)C1 [Example 20, (3R,5S)-1-(L-Arginyl)-3-amino-5-(2-boronoethyl)piperidine-3-carboxylic acid trihydrochloride]
3 | 500 to 999 nM | 1 to 249 nM | N[C@@H](CO)C(=O)N1C[C@@H](CCB(O)O)C[C@](N)(C(=O)O)C1 [Example 6, (3R,5S)-1-(L-Seryl)-3-amino-5-(2-boronoethyl)piperidine-3-carboxylic acid dihydrochloride]
4 | 1000 to 10000 nM | 1 to 249 nM | N[C@@H](Cc1ccccc1)C(=O)N1C[C@@H](CCB(O)O)C[C@](N)(C(=O)O)C1 [Example 11, (3R,5S)-1-(L-Phenylalanyl)-3-amino-5-(2-boronoethyl)piperidine-3-carboxylic acid dihydrochloride]
5 | 500 to 999 nM | 1 to 249 nM | N[C@@H](Cc1c[nH]cn1)C(=O)N1C[C@@H](CCB(O)O)C[C@](N)(C(=O)O)C1 [Example 13, (3R,5S)-1-(L-Histidyl)-3-amino-5-(2-boronoethyl)piperidine-3-carboxylic acid trihydrochloride]
6 | 500 to 999 nM | 250 to 499 nM | C[C@H](N)C(=O)N1C[C@@H](CCB(O)O)C[C@](N)(C(=O)O)C1 [Example 1, (3R,5S)-1-(L-Alanyl)-3-amino-5-(2-boronoethyl)piperidine-3-carboxylic acid dihydrochloride]
7 |  | 250 to 499 nM | N[C@]1(C(=O)O)C[C@H](CCB(O)O)CN(C(=O)[C@@H]2CCCN2)C1 [Example 4, (3R,5S)-1-(L-Prolyl)-3-amino-5-(2-boronoethyl)piperidine-3-carboxylic acid dihydrochloride]
8 |  | 250 to 499 nM | NC(=O)CC[C@H](N)C(=O)N1C[C@@H](CCB(O)O)C[C@](N)(C(=O)O)C1 [Example 16, (3R,5S)-1-(L-Glutaminyl)-3-amino-5-(2-boronoethyl)piperidine-3-carboxylic acid dihydrochloride]
9 |  | 500 to 999 nM | N[C@@H](CS)C(=O)N1C[C@@H](CCB(O)O)C[C@](N)(C(=O)O)C1 [Example 19, (3R,5S)-1-(L-Cysteinyl)-3-amino-5-(2-boronoethyl)piperidine-3-carboxylic acid dihydrochloride]
10 |  | 1000 to 10000 nM | C[C@@H](N)C(=O)N1C[C@@H](CCB(O)O)C[C@](N)(C(=O)O)C1 [Example 23, (3R,5S)-1-(D-Alanyl)-3-amino-5-(2-boronoethyl)piperidine-3-carboxylic acid dihydrochloride]
11 | 500 to 999 nM | 1 to 249 nM | NCCCC[C@H](N)C(=O)N1C[C@@H](CCB(O)O)C[C@](N)(C(=O)O)C1 [Example 7, (3R,5S)-1-(L-Lysyl)-3-amino-5-(2-boronoethyl)piperidine-3-carboxylic acid trihydrochloride]
12 |  | 250 to 499 nM | N[C@@H](Cc1c[nH]c2ccccc12)C(=O)N1C[C@@H](CCB(O)O)C[C@](N)(C(=O)O)C1 [Example 18, (3R,5S)-1-(L-Tryptophyl)-3-amino-5-(2-boronoethyl)piperidine-3-carboxylic acid dihydrochloride]
13 |  | 500 to 999 nM | N[C@@H](CCC(=O)O)C(=O)N1C[C@@H](CCB(O)O)C[C@](N)(C(=O)O)C1 [Example 15, (3R,5S)-1-(L-Glutamyl)-3-amino-5-(2-boronoethyl)piperidine-3-carboxylic acid dihydrochloride]
14 |  | > 10000 nM | C[C@H](N)C(=O)N1C[C@H](CCB(O)O)C[C@@](N)(C(=O)O)C1 [Example 2, (3S,5R)-1-(L-Alanyl)-3-amino-5-(2-boronoethyl)piperidine-3-carboxylic acid dihydrochloride]
15 |  | 250 to 499 nM | NC(=O)NCCC[C@H](N)C(=O)N1C[C@@H](CCB(O)O)C[C@](N)(C(=O)O)C1 [Example 21, (3R,5S)-3-Amino-1-((S)-2-amino-5-ureidopentanoyl)-5-(2-boronoethyl) piperidine-3-carboxylic acid dihydrochloride]
16 | 500 to 999 nM | 1 to 249 nM | C[C@H](N)C(=O)N1C[C@@H](CCB(O)O)C[C@](N)(C(=O)O)[C@@H]1C [Example 30, (2S,3R,5S)-1-(L-alanyl)-3-amino-5-(2-boronoethyl)-2-methylpiperidine-3-carboxylic acid dihydrochloride]
17 |  | 250 to 499 nM | NC(=O)C[C@H](N)C(=O)N1C[C@@H](CCB(O)O)C[C@](N)(C(=O)O)C1 [Example 26, (3R,5S)-1-(L-Asparaginyl)-3-amino-5-(2-boronoethyl)piperidine-3-carboxylic acid dihydrochloride]
18 |  | 250 to 499 nM | CNCC(=O)N1C[C@@H](CCB(O)O)C[C@](N)(C(=O)O)C1 [Example 27, (3R,5S)-3-Amino-5-(2-boronoethyl)-1-(methylglycyl)piperidine-3-carboxylic acid dihydrochloride]
19 |  | 250 to 499 nM | C[C@@H](O)[C@H](N)C(=O)N1C[C@@H](CCB(O)O)C[C@](N)(C(=O)O)C1 [Example 12, (3R,5S)-1-(L-Threonyl)-3-amino-5-(2-boronoethyl)piperidine-3-carboxylic acid dihydrochloride]
